In paper PMC9378703 (Nature Communications, 2022):

Key:
Uba1 [1] = molecular target: T1, Uba1 (Saccharomyces cerevisiae, UniProt P22515, D472A); assay: colorimetric ATPase assay (BIOMOL-GREEN phosphate, pyrophosphatase-coupled); type: biochemical; settings: 80 μM ubiquitin, 1 mM ATP, 2 mM MgCl2, pH 7.5, 30 °C; turnover
T1 construct: residues 10-1024; N-terminal His-tag (pET28a); expressed in E. coli BL21 (DE3)

Uba1 [2] = molecular target: T2, Uba1 (Saccharomyces cerevisiae, UniProt P22515, D544E); assay: as above; type: biochemical; settings: 80 μM ubiquitin, 1 mM ATP, 2 mM MgCl2, pH 7.5, 30 °C; turnover
T2 construct: residues 10-1024; N-terminal His-tag (pET28a); expressed in E. coli BL21 (DE3)
T2 sequence (P22515 10-1024 D544E): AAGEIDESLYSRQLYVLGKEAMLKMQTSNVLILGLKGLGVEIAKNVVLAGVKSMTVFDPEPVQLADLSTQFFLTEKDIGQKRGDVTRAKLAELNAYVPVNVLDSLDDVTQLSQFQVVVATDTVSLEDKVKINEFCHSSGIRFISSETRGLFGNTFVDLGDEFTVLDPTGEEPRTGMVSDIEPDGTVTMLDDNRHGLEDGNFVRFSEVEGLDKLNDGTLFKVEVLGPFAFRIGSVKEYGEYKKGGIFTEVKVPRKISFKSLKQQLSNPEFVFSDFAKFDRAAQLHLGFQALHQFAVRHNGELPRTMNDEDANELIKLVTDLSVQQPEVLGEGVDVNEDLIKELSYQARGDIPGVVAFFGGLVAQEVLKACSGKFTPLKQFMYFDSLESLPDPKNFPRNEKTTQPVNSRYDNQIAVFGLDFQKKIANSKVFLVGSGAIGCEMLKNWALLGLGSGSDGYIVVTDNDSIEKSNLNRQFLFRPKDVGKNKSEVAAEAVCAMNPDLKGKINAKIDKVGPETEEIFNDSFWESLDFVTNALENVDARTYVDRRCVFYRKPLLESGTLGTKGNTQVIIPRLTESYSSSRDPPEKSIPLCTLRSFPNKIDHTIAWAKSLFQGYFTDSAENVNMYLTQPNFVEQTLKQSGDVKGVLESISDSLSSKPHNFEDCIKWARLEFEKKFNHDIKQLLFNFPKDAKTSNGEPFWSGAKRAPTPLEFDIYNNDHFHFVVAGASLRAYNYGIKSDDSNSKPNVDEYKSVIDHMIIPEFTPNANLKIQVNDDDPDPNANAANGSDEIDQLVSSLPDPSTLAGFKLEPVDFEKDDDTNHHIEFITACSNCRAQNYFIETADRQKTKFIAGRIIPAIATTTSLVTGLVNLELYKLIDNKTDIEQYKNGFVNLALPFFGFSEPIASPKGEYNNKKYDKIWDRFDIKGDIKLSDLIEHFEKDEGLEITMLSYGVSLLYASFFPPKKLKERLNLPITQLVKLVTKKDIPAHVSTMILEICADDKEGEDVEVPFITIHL

T1 sequence (P22515 10-1024 D472A): as the sequence (P22515 10-1024 D544E) above, with D463A, E535D counted along it

## Nc1ncnc2c1ncn2[C@@H]1O[C@H](COP(=O)(O)OP(=O)(O)OP(=O)(O)O)[C@@H](O)[C@H]1O [ATP]
Uba1 [1]
  colorimetric ATPase assay (BIOMOL-GREEN phosphate, pyrophosphatase-coupled): the D472A variant retained full activity as did the D472E or D544E substitutions
Uba1 [2]
  colorimetric ATPase assay (BIOMOL-GREEN phosphate, pyrophosphatase-coupled): the D472A variant retained full activity as did the D472E or D544E substitutions
